The text below walks through data of PMC8734228 (Cancer discovery, 2021).

Where two headings read alike, the source gives them in different places. Bounds are passed on as bounds.

One data set deals with FLC5 cells. In words: Anchor screen, synergy assay. It is filed as cell-based, human. As to conditions: FLC5, ZIP, Bliss and HSA scores.
Another data set relates to mTOR. As to conditions: read-out: IC50 mTOR; cited from earlier work.
For a further data set, the system named is FLC1 PDX cells. In words: Validation screen, 11-point dose response, 72 h, Cell Titer Glo. As to conditions: read-out: EC50 FLC. It is filed as cell-based, human.
The test system of a further data set is FLC2 PDX cells. Described as above. The data set is classed as cell-based, human. As to conditions: read-out: EC50 FLC.
The next data set relates to FLC3 PDX cells. The description is as above. As to conditions: read-out: EC50 FLC. The data set is classed as cell-based, human.
The subject of another data set is FLC4 PDX cells. The description is as above. The data set is classed as cell-based, human. As to conditions: read-out: EC50 FLC.
A further data set has as its system FLC5 PDX cells. Described as above. The note with it: read-out: EC50 FLC. The data set is classed as cell-based, human.
For data set [1], the system named is cells dissociated directly from patient tumors (FLC.T6-T11). In words: Direct from patient in vitro screening. The note with it: for Drug sensitivity of FLC.T6 compared with derived PDX FLC6 (EC50): cells direct from patient tumor vs cells from its PDX; for Sensitivity of cells tested directly from patients: 10μM-10nM, 72h, Cell Titer Glo. It is filed as cell-based, human.

A further data set has as its target PKA. The note with it: read-out: Ki PKA; cited from earlier work.
Another data set has as its target Akt1. The note with it: read-out: Ki against other kinases: Akt1; cited from earlier work.
A further data set deals with Akt2. The note with it: read-out: Ki against other kinases: Akt2; cited from earlier work.
The target in the next data set is Akt3. The note with it: read-out: Ki against other kinases: Akt3; cited from earlier work.
The target in the next data set is p70s6k. As to conditions: read-out: Ki against other kinases: p70s6k; cited from earlier work.
Another data set deals with Rock1. As to conditions: read-out: Ki against other kinases: Rock1; cited from earlier work.
The target in a further data set is Rock2. The note with it: read-out: Ki against other kinases: Rock2; cited from earlier work.
Data set [2] concerns primary human hepatocytes (PHH). In words: Validation counter-screen on primary human hepatocytes. As to conditions: 72 h; for EC50: read-out: EC50 PHH. For orientation: The purpose of a counterscreen is to sort out artefacts and off-target activity.
A further data set has as its system FLC patients. The note with it: two FLC patients, clinical trial ref 10; cited from earlier work.
The test system of the next data set is FLC PDX cells. The data set can be described thus: Validation screen on cells dissociated from FLC PDX. As to conditions: for Effect on FLC PDX cells in vitro (dose response, normalized percent survival): 10nM-10μM, 72 h, FLC1-6; for Efficacy ranking in the screen: ranked by average −log10EC50 for FLC1-5 minus −log10EC50 for PHH. The data set is classed as cell-based, human.

The test system of the next data set is PAK 1. The note with it: read-out: IC50 PAK 1; cited from earlier work.
The test system of a further data set is PAK 2. As to conditions: read-out: IC50 PAK 2; cited from earlier work.
A further data set deals with PAK 3. The note with it: read-out: IC50 PAK 3; cited from earlier work.
A further data set concerns ErbB2. As to conditions: read-out: IC50 ErbB2; cited from earlier work.
The test system of a further data set is EGFR. The note with it: read-out: IC50 EGFR; cited from earlier work.
For a further data set, the system named is PI3K (p110α)/DNA-PK. As to conditions: read-out: IC50 PI3K (p110α)/DNA-PK; cited from earlier work.
For a further data set, the system named is FLC1 cells. The data set can be described thus: Role of ROS: survival with or without N-acetyl cysteine 10mM. The data set is classed as cell-based, human. The note with it: NAC 10mM, 72 h.
A further data set relates to FLC1 PDX. In words: In vivo drug testing in mice bearing PDX FLC1. As to conditions: 2 days, FLC1.
The next data set deals with FLC PDX. The data set can be described thus: In vivo drug testing of HDAC inhibitors in mice bearing PDX.
In another data set the test system is FLC5 PDX. In words: In vivo drug testing in mice bearing PDX FLC5. As to conditions: panobinostat 2.5mg/kg combined with navitoclax 50 mg/kg.
Another data set concerns the target GSK-3β. As to conditions: read-out: Ki against other kinases: GSK-3β; cited from earlier work.
In another data set the target is ERK2. The note with it: read-out: Ki against other kinases: ERK2; cited from earlier work.
The target of the next data set is PKCδ. As to conditions: read-out: Ki against other kinases: PKCδ; cited from earlier work.
Another data set addresses RSK2. The note with it: read-out: Ki against other kinases: RSK2; cited from earlier work.
For the next data set, the target named is PKG. As to conditions: read-out: Ki against other kinases: PKG; printed as PKG/PKC; cited from earlier work.
A further data set addresses PKC. The note with it: read-out: Ki against other kinases: PKC; printed as PKG/PKC; cited from earlier work.

As to `CO[C@H]1C[C@@H]2CC[C@@H](C)[C@@](O)(O2)C(=O)C(=O)N2CCCC[C@H]2C(=O)O[C@H]([C@H](C)C[C@@H]2CC[C@@H](OCCO)[C@H](OC)C2)CC(=O)[C@H](C)/C=C(\C)[C@@H](O)[C@@H](OC)C(=O)[C@H](C)C[C@H](C)/C=C/C=C/C=C/1C` [everolimus], the “Synergy with A1331852” value with FLC5 cells is “some synergy”. The IC50 with mTOR is 1.6 to 2.4 nM.
On to `NC[C@@](O)(c1ccc(Cl)cc1)c1ccc(-c2cn[nH]c2)cc1` [AT13148], for which the EC50 in the data set on FLC1 PDX cells (Homo sapiens, 72 h) was found to be 39 nM; in the data set on FLC2 PDX cells (Homo sapiens, 72 h) it was 6140 nM; with FLC3 PDX cells (Homo sapiens, 72 h), 590 nM; in the data set on FLC4 PDX cells (Homo sapiens, 72 h), 4290 nM; in the data set on FLC5 PDX cells (Homo sapiens, 72 h), 96 nM; in data set [2] (Homo sapiens, Hepatocyte) it was 4050 nM. The “Synergy with A1331852” value in the data set with FLC5 cells was “some synergy”. Also, the “Drug sensitivity of FLC.T6 compared with derived PDX FLC6 (EC50)” value in [1] is on record as “outliers”. Also, the Ki at PKA is 3 nM; on Akt1, 38 nM; at Akt2, 402 nM; at Akt3 it was 50 nM; at p70s6k, 8 nM; on Rock1, 6 nM. Besides, the Ki at Rock2 was 4 nM.
Consider `CN1CC[C@H](c2c(O)cc(O)c3c(=O)cc(-c4ccccc4Cl)oc23)[C@H](O)C1` [flavopiridol], for which, in data set [1], the “Sensitivity of cells tested directly from patients” value (from here on “Sensitivity … from patients”) is “some sensitivity”. In addition, in the data set with FLC patients, the “Duration of stable disease” value is recorded as 17 months. Further, the “Effect on PHH (dose response, normalized percent survival)” value in data set [2] (up to 10 μM) is listed as “toxic”.
On to `CCn1c(=O)c(-c2ccc(-c3cncs3)cc2Cl)cc2cnc(Nc3ccc(N4CCN(C)CC4)cc3)nc21` [FRAX567], for which the “Effect on FLC PDX cells in vitro (dose response, normalized percent survival)” value in the data set on FLC PDX cells is reported as “consistent inhibition against all PDX”. Further, the “Efficacy ranking in the screen” value in the data set with FLC PDX cells stood at 12. In addition, the IC50 in the data set on PAK 1 is 8 nM; in the data set on PAK 2, […]; in the data set with PAK 3, 19 nM.
On to `CCOc1cc2ncc(C#N)c(Nc3ccc(OCc4ccccn4)c(Cl)c3)c2cc1NC(=O)/C=C/CN(C)C` [Neratinib], for which the “Effect on FLC PDX cells in vitro (dose response, normalized percent survival)” value in the data set on FLC PDX cells is given as “affected FLC1,5 in the micromolar range”. Moreover, in [1], the “Sensitivity … from patients” value is recorded as “no effect on three others” and the “Drug sensitivity of FLC.T6 compared with derived PDX FLC6 (EC50)” value is “correlated well”. In the data set on ErbB2, the IC50 is 59 nM. In addition, the IC50 in the data set on EGFR is 92 nM.
Regarding `Cc1ccc([N+](=O)[O-])cc1S(=O)(=O)N(C)/N=C/c1cnc2ccc(Br)cn12` [PIK-75], in the data set on FLC PDX cells, the “Effect on FLC PDX cells in vitro (dose response, normalized percent survival)” value is “potent against FLC1,4 relative to PHH”. The “Sensitivity … from patients” value in data set [1] is reported as “sensitive”. For the same compound, the IC50 in the data set with PI3K (p110α)/DNA-PK was 5.8 nM.
On to `Cc1[nH]c2ccccc2c1CCNCc1ccc(/C=C/C(=O)NO)cc1` [panobinostat], for which the “Efficacy ranking in the screen” value in the data set with FLC PDX cells is given as 103. Moreover, in the data set with FLC1 cells, the “Effect of N-acetyl cysteine (NAC) on the toxicity of the drug” value was “mildly attenuated”. Also, the “Apoptosis (TUNEL), panobinostat alone compared to vehicle” value with FLC1 PDX (panobinostat 10mg/kg alone) was “no evidence of increased apoptosis”. Moreover, in the data set on FLC1 PDX (panobinostat 10mg/kg combined with A1331852 25mg/kg), the “Apoptotic cells (TUNEL) with combined treatment” value is “many apoptotic cells”. Also, in the data set on FLC PDX (10mg/kg IP), the “Tumor growth at 7 days” value was −7% and the “Tumor growth at 14 days” value was 4%. Also, in the data set with FLC PDX (10mg/kg IP, 14 days), the Average weight loss is 11% and the “Tumor volume:mouse weight” value is “stable or decreased”. Moreover, in the data set on FLC PDX (10mg/kg, after 14 days), the “Apoptosis as assayed by TUNEL” value is “no increase in apoptosis”; the “Mitotic figures, Ki67 and pHH3 positive cells in tumors” value is given as “dramatic decrease”. Further, the “Tumor response with combined treatment” value with FLC5 PDX is on record as “partial response”. Moreover, in data set [1], the “Sensitivity … from patients” value is on record as “sensitive” and the “Drug sensitivity of FLC.T6 compared with derived PDX FLC6 (EC50)” value is listed as “correlated well”.
In the case of `Cn1ncc(Cl)c1-c1cc(C(=O)N[C@H](CN)Cc2ccc(F)c(F)c2)oc1Cl` [Uprosertib (GSK2141795), Uprosertib], the EC50 in the data set with FLC1 PDX cells (Homo sapiens, 72 h) is 49 nM; with FLC2 PDX cells (Homo sapiens, 72 h) it was 5040 nM; in the data set on FLC3 PDX cells (Homo sapiens, 72 h), 870 nM; in the data set with FLC4 PDX cells (Homo sapiens, 72 h), 910 nM; in the data set with FLC5 PDX cells (Homo sapiens, 72 h), 1720 nM; in [2] (Homo sapiens, Hepatocyte) it was above 10000 nM. In addition, in the data set on FLC PDX cells, the “Efficacy ranking in the screen” value is given as 28. Also, the “Synergy with A1331852” value in the data set on FLC5 cells was “All drugs, apart from ENMD-2076 and uprosertib, showed some synergy”. In addition, the Synergy with navitoclax result in the data set on FLC5 cells is given as “now synergized”. In data set [1], the “Sensitivity … from patients” value was “some sensitivity”. Also, the inhibition constant (Ki) is 2 nM at PKA, 180 nM on Akt1 and 38 nM on Akt3.
Turning to `Cc1[nH]nc2ccc(-c3cncc(OC[C@@H](N)Cc4ccccc4)c3)cc12` [A-674563], the EC50 stood at 340 nM in the data set with FLC1 PDX cells (FLC1, 72 h); 700 nM with FLC2 PDX cells (FLC2, 72 h); 880 nM in the data set on FLC3 PDX cells (FLC3, 72 h); 160 nM in the data set with FLC4 PDX cells (FLC4, 72 h). In addition, in the data set on FLC PDX cells (FLC PDX cells compared with PHH), the “Therapeutic window for FLC over PHH” value is “no therapeutic window”. In addition, the Ki at PKA is 16 nM; at GSK-3β, 110 nM; on ERK2, 260 nM; on PKCδ, 360 nM; at RSK2, 580 nM.
`CCCCCCOC(=O)[C@]1(O)C[C@@H]2O[C@@]1(C)n1c3ccccc3c3c4c(c5c6ccccc6n2c5c31)C(=O)NC4` [KT5720]: the EC50 with FLC1 PDX cells (FLC1, 72 h) was 1610 nM; with FLC2 PDX cells (FLC2, 72 h), 2140 nM; in the data set with FLC3 PDX cells (FLC3, 72 h) it was 2710 nM; in the data set on FLC4 PDX cells (FLC4, 72 h), 1480 nM; in the data set with FLC5 PDX cells (FLC5, 72 h), 3870 nM; in data set [2], above 10000 nM. The inhibition constant (Ki) at PKA was 60 nM; on PKG it was above 2000 nM; on PKC, above 2000 nM.

Usually EC50 stands for the concentration at which the effect is half-maximal. One may read the Ki as the dissociation constant of the complex between target and ligand, obtained from inhibition or displacement.
